According to patent US11491120B2, “Pharmacological prophylactics against stress-induced affective disorders in females” (The Trustees of Columbia University in the City of New York, priority 2017, dated 2022):

Test system: female 129S6/SvEv mice
Test: Forced swim test (FST), immobility time, after stress
[1] = Forced Swim Test Day 1, Dunnett test Sal vs. drug (2.5), 1 week prophylactic drug
[2] = Forced Swim Test Day 1, Dunnett test Sal vs. drug (10), 1 week prophylactic drug
[3] = Ovariectomized cohort, 1 week prophylactic drug, Forced Swim Test Day 1, OVX mice, K (10), (2R,6R)-HNK (0.025)
[4] = Ovariectomized cohort, 1 week prophylactic drug, Forced Swim Test Day 1, Sham mice, K (10), (2R,6R)-HNK (0.025)
[5] = Ovariectomized cohort, 1 week prophylactic drug, Forced Swim Test Day 1, Sham vs OVX, same drug, K (10), (2R,6R)-HNK (0.025)
[6] = Ovariectomized, E2/P4 replacement, 1 week prophylactic drug, Forced Swim Test Day 2, K (10), (2R,6R)-HNK (0.025), FIG. 5F
[7] = Ovariectomized, same drug, hormone Vehicle vs. E2/P4 replacement, 1 week prophylactic drug, Forced Swim Test Day 2, K (10), (2R,6R)-HNK (0.025), FIG. 5F
[8] = Sal vs. (2R,6R)-HNK (0.025), Fisher's PLSD, 1 week prophylactic drug, learned helplessness stress, Forced Swim Test Day 1
[9] = Sal vs. (2R,6R)-HNK (0.025), Fisher's PLSD, 3 day prophylactic drug/Forced Swim Test Day 1

N[C@@]1(c2ccccc2Cl)CCC[C@@H](O)C1=O [(2R,6R)-HNK, (2R,6R)-hydroxynorketamine]
p, Immobility Time (min 3) [1]: 0.9998
p, Immobility Time (min 4) [1]: 0.9999
p, Immobility Time (min 5) [1]: 0.9867
p, Immobility Time (min 6) [1]: 0.9994
p, Immobility Time Average (min 3-6) [1]: 0.9997
p, Immobility Time (min 1) [2]: 0.0528
p, Immobility Time (min 1-6) [2]: 0.9943
p, Immobility Time (min 3) [2]: 0.6584
p, Immobility Time (min 4) [2]: 0.5947
p, Immobility Time (min 5) [2]: 0.6743
p, Immobility Time (min 6) [2]: 0.1601
p, Immobility Time Average (min 3-6) [2]: 0.3035
p, Immobility Time (min 1-6), OVX Sal vs OVX drug [3]: 0.2525
p, Immobility Time Average (min 3-6), Fisher's PLSD, OVX Sal vs OVX drug [3]: 0.3199
p, Immobility Time (min 1-6), Sham Sal vs Sham drug [4]: 0.7085
p, Immobility Time Average (min 3-6), Fisher's PLSD, Sham Sal vs Sham drug [4]: 0.9957
* (significance), Immobility Time (min 1-6), Sham drug vs OVX drug [5]: *** (*** p<0.0001)
* (significance), Immobility Time Average (min 3-6), Fisher's PLSD, Sham drug vs OVX drug [5]: *** (*** p<0.0001)
p, Immobility Time (min 1-6), Sham drug vs OVX drug [5]: <0.0001
p, Immobility Time Average (min 3-6), Fisher's PLSD, Sham drug vs OVX drug [5]: 0.0001
p, Fisher's PLSD, Immobility Time Average (min 3-6), OVX Sal vs. OVX drug (Ovariectomized females, 1 week prophylactic drug, Forced Swim Test Day 2, K (10), (2R,6R)-HNK (0.025), FIG. 5C): 0.9445
p, Fisher's PLSD, Immobility Time Average (min 3-6), E2/P4 Sal vs. E2/P4 drug [6]: 0.0316
significance (*), Fisher's PLSD, Immobility Time Average (min 3-6), E2/P4 Sal vs. E2/P4 drug [6]: * (* p<0.05)
p, Fisher's PLSD, Immobility Time Average (min 3-6), Vehicle Sal vs. Vehicle drug (Ovariectomized, hormone Vehicle, 1 week prophylactic drug, Forced Swim Test Day 2, K (10), (2R,6R)-HNK (0.025), FIG. 5F): 0.6287
p, Fisher's PLSD, Immobility Time Average (min 3-6), Vehicle drug vs. E2/P4 drug [7]: 0.0013
significance (*), Fisher's PLSD, Immobility Time Average (min 3-6), Vehicle drug vs. E2/P4 drug [7]: ** (** p<0.01)
*, Immobility Time (min 1) [8]: ** (** p<0.01)
*, Immobility Time (min 2) [8]: *** (*** p<0.0001)
*, Immobility Time (min 3) [8]: *** (*** p<0.0001)
*, Immobility Time (min 4) [8]: ** (** p<0.01)
*, Immobility Time (min 5) [8]: ** (** p<0.01)
*, Immobility Time (min 6) [8]: ** (** p<0.01)
*, Immobility Time Average (min 1-6) [8]: *** (*** p<0.0001)
p, Immobility Time (min 1) [8]: 0.0043
p, Immobility Time (min 2) [8]: <0.0001
p, Immobility Time (min 3) [8]: 0.0001
p, Immobility Time (min 4) [8]: 0.0009
p, Immobility Time (min 5) [8]: 0.0002
p, Immobility Time (min 6) [8]: 0.0002
p, Immobility Time Average (min 1-6) [8]: 0.0001
*, Immobility Time (min 1) [9]: *** (*** p<0.0001)
*, Immobility Time (min 2) [9]: ** (** p<0.01)
*, Immobility Time (min 3) [9]: ** (** p<0.01)
